Data from article PMC9885069 (Scientific Reports, 2023).
“Also recorded” adds a separate entry of the source. Where two headings read alike, the source gives them in different places.

Assays:
HSV-1 [1] = type: cell-based; conditions: 10 μM; for anti-HSV-1 activity in NPCs: 01SD and 9001 NPCs, day 3 p.i.; for reduction of the percentage of EGFP+-RFP+ cells compared to infected cells exposed to vehicle: MOI 0.1, day 3 p.i.
HSV-1 [2] = experiment: microbe, parasite or virus in culture; type: cell-based; conditions: for inhibition of HSV-1 infection (EGFP and RFP reporter expression) in brain organoids: 9001 and 01SD fourteen-week old organoids, 6000 pfu/organoid, compounds 10 μM, ACV 50 μM, day 3 p.i.
[3] = test system: SARS-CoV-2 (isolate USA WA1/2020); experiment: NIH-NIAID in vitro SARS-CoV2 viral replication assay in Calu3 cells; type: cell-based; conditions: for therapeutic selectivity: CC50/IC50 in Calu3 cells
01SD NPC cultures = experiment: Cytotoxicity in uninfected NPC cultures, flow cytometry with fixable viability dye; conditions: uninfected 01SD NPCs; for cell viability of treated cultures: concentrations up to 50 μM
human brain organoids = experiment: Organoid viability, calcein AM assay; type: cell-based; parameters: organoid viability: dose or concentration left out as unconfirmed
Procedure: Sixteen-week old brain organoids were infected as described above and exposed after 2 h to increasing 8 concentration ranging from 0.01 to 50 μM. At day 3 p.i. the IC50 of 8 was determined by measuring the intensity of the fluorescent reporter gene EGFP (whose expression is under the control of promoter of the immediate early HSV-1 gene ICP0) in the infected organoids was investigated. The EGFP expression was used as a proxy for viral gene expression during early stages of HSV-1 acute infection.
Figure 6 Antiviral efficacy and cytotoxicity of 8 against HSV-1 in human brain organoids. […] The IC50 was estimated by determining the corrected total cell fluorescence (CTCF) obtained by measuring EGFP fluorescence in organoids using ImageJ and normalizing for background using equation CTCF = integrated density − (area of the organoid × mean fluorescence of background readings). (B) Cytotoxicity of 8 without HSV-1 infection was assessed using calcein-AM. The fluorescence of calcein-AM in each organoid was measured and CTCF was determined as described above. […] 9001 and 01SD are printed as plot headings and were read as the test systems (organoid lines), not as substances. […]
Organoids viability was analyzed using calcein AM assay (BioLegend; catalogue # 425201), according to manufacturer’s instructions. […]

[4] = Toxicity (cell number) in Calu3 cells in the SARS-CoV-2 assay; type: cell-based; conditions: human, Calu3 (ATCC, HTB-55) cells infected with SARS-CoV-2, 48 h post-infection
[5] = test system: host cell gene expression in 02SF NPCs; experiment: RNA sequencing and Ingenuity Pathway Analysis of uninfected NPCs; type: cell-based, human; conditions: 10 μM
[6] = test system: eIF2α phosphorylation on serine 51; experiment: Immunocytochemistry of eIF2α phosphorylated on serine 51 in NPCs; type: cell-based, human; conditions: 9001 NPCs, 10 μM, 24 h, compared to untreated or 7-treated NPCs
Procedure: The RNA sequencing data is thus fully consistent with the hypothesis that 2b and 8 trigger a host antiviral response by activating an ISR.
Figure 8 Activation of the integrated stress response in 2b- and 8-treated NPCs. (A) NPCs derived from 9001 iPSC lines were exposed to compounds 7, 8, and 2b (10 μM). After 24 h, cells were fixed and stained with an antibody that detects eIF2α phosphorylated on Serine 51 (EIF2S1). Nuclei were counterstained with Hoechst 33342, and phosphorylation was assessed by fluorescence microscopy. (B) The corrected total cell fluorescence (CTCF) was obtained by measuring EIF2S1 fluorescence in cells where a fluorescent signal could be detected and normalizing for cellular area using equation CTCF = integrated density − (cellular area × mean fluorescence of background readings). Error bars are standard deviations. One-way analysis of variance (ANOVA) followed by Bonferroni post-hoc test was used to compare CTCF among the different conditions: ** (P = 0.0042); **** (P < 0.0001). (C,D) Up-regulation of the EIF2A kinase EIF2AK3 (C) and the activated transcription factor 4 (ATF4) (D) in 2b- and 8-treated NPCs. Fold-changes were calculated from RNA-seq data described in the methods section. (E) Proposed mechanism of action of 2b and 8.

HSV-1 strain 17syn+ = experiment: Mouse ocular model of HSV-1 infection, plaque assay of eye swabs; type: in vivo, ND4 Swiss mice
Procedure: The antiviral efficacy of compound 8 was further investigated and confirmed in an in vivo mouse model. ND4 Swiss mice were infected in the eyes with HSV-1 following light corneal scarification as described in the Materials and Methods section. At the same time that the virus was applied, one group of mice (n = 10) were treated a 50uM solution of compound 8 in DMSO and the other group (n = 10) were treated DMSO (vehicle). The eyes were treated with either vehicle or compound 8 each day for 4 days. The eyes were swabbed daily and infectious virus shedding was assessed by standard plaque assay.
Figure 9 In vivo antiviral activity. ND4 swiss mice were infected by corneal scarification with 1 × 10^5 pfu of HSV-1 strain 17syn+. Eyes were swabbed daily for 4 days and assayed for infectious virus by standard plaque assay.
ND4 Swiss mice, 4–6 weeks of age, (Envigo labs) were infected by the ocular route. Mice were anesthetized with isoflurane and the cornea were lightly scarified with a 23 ga. needle. 1 × 10^5 pfu (in 5 µl) of HSV-1 strain 17syn+ was applied to the corneal surface. At the same time, one group of mice (n = 10) were treated with 2 µL of a 50 µM solution of compound 8 in DMSO and the other group (n = 10) were treated with 2 µL DMSO (vehicle), applied to the eyes. The eyes were treated with either vehicle or compound 8 each day for 4 days. In order to assess the effect of compound 8 on the course of the infection, the eyes were swabbed daily with a Dacron swab, and the virus eluted in MEM medium. The swab eluate was assessed for the presence of infectious virus by standard plaque assay on rabbit skin cell monolayers.

[7] = cited from earlier work
HSV-1 [8] = conditions: cited from earlier work
[9] = test system: fibroblasts, hepatocytes, iPSC-derived neural progenitor cells; parameters: method as in PMID 30413769; conditions: cited from earlier work

COc1cccc2c1C(=O)N[C@H]1[C@H](O)[C@H](O)[C@@H](O)C[C@H]21 [Compound 7, (2S,3R,4S,4aR,10bR)-2,3,4-Trihydroxy-7-methoxy-1,3,4,4a,5,10b-hexahydrophenanthridin-6(2H)-one]
anti-HSV-1 activity in NPCs (HSV-1 [1]): no anti-HSV-1 activity
inhibition of HSV-1 infection (EGFP and RFP reporter expression) in brain organoids (HSV-1 [2]): no anti-HSV-1 activity

CCC(CC)COC(=O)[C@H](C)N[P@](=O)(OC[C@H]1O[C@@](C#N)(c2ccc3c(N)ncnn23)[C@H](O)[C@@H]1O)Oc1ccccc1 [remdesivir]
IC50 ([3]; Severe acute respiratory syndrome coronavirus 2, Calu-3, Calu3 cells, MOI=0.5, 2 h pretreatment, 48 h post-infection, read-out: IC50 (infection, dsRNA+ cells/total cell number)): 60 nM

Nc1nc2c(ncn2COCCO)c(=O)[nH]1 [ACV, acyclovir]
cell viability of treated cultures (01SD NPC cultures): comparable

O=C1N[C@H]2[C@H](O)[C@H](O)[C@@H](O)C[C@@H]2c2cccc(O)c21 [Compound 8, (2S,3R,4S,4aR,10bR)-2,3,4,7-Tetrahydroxy-1,3,4,4a,5,10b-hexahydrophenanthridin-6(2H)-one]
reduction of the percentage of EGFP+-RFP+ cells compared to infected cells exposed to vehicle (HSV-1 [1]; 01SD NPCs): 6.76 fold
reduction of the percentage of EGFP+-RFP+ cells compared to infected cells exposed to vehicle (HSV-1 [1]; 9001 NPCs): 4.65 fold
inhibition of HSV-1 infection (EGFP and RFP reporter expression) in brain organoids (HSV-1 [2]): no expression of EGFP and RFP reporter genes
IC50 (HSV-1 [2]; Human alphaherpesvirus 1, 72 h, read-out: IC50 of HSV-1 infection (EGFP intensity), 01SD organoids, sixteen-week old, day 3 p.i.): 209 nM
IC50 (HSV-1 [2]; Human alphaherpesvirus 1, 72 h, read-out: IC50 of HSV-1 infection (EGFP intensity), 9001 organoids, sixteen-week old, day 3 p.i.): 504 nM
IC50 (HSV-1 [2]; Human alphaherpesvirus 1, read-out: IC50 (EGFP CTCF), printed in Figure 6A, 01SD organoids): 209 nM
IC50 (HSV-1 [2]; Human alphaherpesvirus 1, read-out: IC50 (EGFP CTCF), printed in Figure 6A, 9001 organoids): 504 nM
organoid viability (human brain organoids): No significant reduction
organoid viability (calcein AM) (human brain organoids; without HSV-1 infection, concentrations up to 50 μM): No significant reduction; also recorded: No significant differences in cell viability
therapeutic selectivity [3]: 20
CC50 at 48 h [4]: 1920 nM
expression of activated transcription factor 4 (ATF4) (RNA-seq) [5]: Up-regulation
expression of the EIF2A kinase EIF2AK3 (RNA-seq) [5]: Up-regulation
eIF2α ~ P immunoreactivity [6]: increased
yield of infectious virus in the tears (HSV-1 shedding) compared to vehicle treated eyes (HSV-1 strain 17syn+; mouse eyes, 50 µM solution in DMSO, daily for 4 days): dramatically reduced; also recorded: dramatically reduces HSV-1 shedding
reduction of peak titer of infectious virus (HSV-1 strain 17syn+; mouse eyes, 50 µM solution in DMSO, daily for 4 days, vs vehicle): reduced almost threefold
yield of infectious virus in the tears (HSV-1 shedding) compared to vehicle treated eyes (HSV-1 strain 17syn+; mouse eyes, 50 µM solution in DMSO, daily for 4 days, listed as 7-hydroxyl derivative): dramatically reduced HSV-1 shedding
delay of peak titer of infectious virus (HSV-1 strain 17syn+; vehicle peak at day 2 post-infection): delayed by one day
cell viability of treated cultures (01SD NPC cultures): comparable

O=C1N[C@H]2[C@H](O)[C@H](O)[C@@H](O)CN2c2cc3c(cc21)OCO3 [Compound 4]
antiviral activity [7]: totally devoid of antiviral activity

COc1ccc2c(c1)[C@H]1C[C@H](O)[C@@H](O)[C@@H](O)[C@@H]1NC2=O [Compound 5, (2S,3R,4S,4aR,10bR)-2,3,4-Trihydroxy-9-methoxy-1,3,4,4a,5,10b-hexahydrophenanthridin-6(2H)-one]
anti-HSV-1 activity in NPCs (HSV-1 [1]): no anti-HSV-1 activity

O=C1N[C@H]2[C@H](O)[C@H](O)[C@@H](O)C[C@@H]2c2cc(O)ccc21 [Compound 6, (2S,3R,4S,4aR,10bR)-2,3,4,9-Tetrahydroxy-1,3,4,4a,5,10b-hexahydrophenanthridin-6(2H)-one]
anti-HSV-1 activity in NPCs (HSV-1 [1]): no anti-HSV-1 activity
inhibition of HSV-1 infection (EGFP and RFP reporter expression) in brain organoids (HSV-1 [2]): no anti-HSV-1 activity

O=C1N[C@H]2[C@H](O)[C@H](O)[C@@H](O)C[C@@H]2c2cc3c(cc21)OCO3 [Compound 2b, trans-dihydrolycoricidine, reference compound]
reduction of the percentage of EGFP+-RFP+ cells compared to infected cells exposed to vehicle (HSV-1 [1]; 01SD NPCs): 8016 fold
reduction of the percentage of EGFP+-RFP+ cells compared to infected cells exposed to vehicle (HSV-1 [1]; 9001 NPCs): 424 fold
inhibition of HSV-1 infection (EGFP and RFP reporter expression) in brain organoids (HSV-1 [2]): no expression of EGFP and RFP reporter genes
therapeutic selectivity [3]: 19
CC50 at 48 h [4]: 3480 nM
expression of activated transcription factor 4 (ATF4) (RNA-seq) [5]: Up-regulation
expression of the EIF2A kinase EIF2AK3 (RNA-seq) [5]: Up-regulation
eIF2α ~ P immunoreactivity [6]: increased
inhibition of HSV-1 replication (HSV-1 [8]; compared with acyclovir (ACV)): more efficaciously than acyclovir
HSV-1 reactivation from latency (HSV-1 [8]; ex vivo mouse model): prevents HSV-1 reactivation from latency
potency against HSV-1 strains resistant to ACV (HSV-1 [8]; tk- strain and PAAv strain): moderate potency
toxicity in comparison to acyclovir ([9]; fibroblasts and hepatocytes): Slightly higher toxicity
toxicity in comparison to acyclovir ([9]; iPSC-derived neural progenitor cells (NPCs)): lower toxicity
concentration from which a reduction in cell viability was observed (01SD NPC cultures): ≥ 25 µM
